The term Ki denotes the equilibrium dissociation constant of an inhibitor or competing ligand from its target. Lower therefore signals a stronger hold on the target.

Chain of LRRK2 (Q5S007 whole entry G2019S, form open, the tested form may be a part): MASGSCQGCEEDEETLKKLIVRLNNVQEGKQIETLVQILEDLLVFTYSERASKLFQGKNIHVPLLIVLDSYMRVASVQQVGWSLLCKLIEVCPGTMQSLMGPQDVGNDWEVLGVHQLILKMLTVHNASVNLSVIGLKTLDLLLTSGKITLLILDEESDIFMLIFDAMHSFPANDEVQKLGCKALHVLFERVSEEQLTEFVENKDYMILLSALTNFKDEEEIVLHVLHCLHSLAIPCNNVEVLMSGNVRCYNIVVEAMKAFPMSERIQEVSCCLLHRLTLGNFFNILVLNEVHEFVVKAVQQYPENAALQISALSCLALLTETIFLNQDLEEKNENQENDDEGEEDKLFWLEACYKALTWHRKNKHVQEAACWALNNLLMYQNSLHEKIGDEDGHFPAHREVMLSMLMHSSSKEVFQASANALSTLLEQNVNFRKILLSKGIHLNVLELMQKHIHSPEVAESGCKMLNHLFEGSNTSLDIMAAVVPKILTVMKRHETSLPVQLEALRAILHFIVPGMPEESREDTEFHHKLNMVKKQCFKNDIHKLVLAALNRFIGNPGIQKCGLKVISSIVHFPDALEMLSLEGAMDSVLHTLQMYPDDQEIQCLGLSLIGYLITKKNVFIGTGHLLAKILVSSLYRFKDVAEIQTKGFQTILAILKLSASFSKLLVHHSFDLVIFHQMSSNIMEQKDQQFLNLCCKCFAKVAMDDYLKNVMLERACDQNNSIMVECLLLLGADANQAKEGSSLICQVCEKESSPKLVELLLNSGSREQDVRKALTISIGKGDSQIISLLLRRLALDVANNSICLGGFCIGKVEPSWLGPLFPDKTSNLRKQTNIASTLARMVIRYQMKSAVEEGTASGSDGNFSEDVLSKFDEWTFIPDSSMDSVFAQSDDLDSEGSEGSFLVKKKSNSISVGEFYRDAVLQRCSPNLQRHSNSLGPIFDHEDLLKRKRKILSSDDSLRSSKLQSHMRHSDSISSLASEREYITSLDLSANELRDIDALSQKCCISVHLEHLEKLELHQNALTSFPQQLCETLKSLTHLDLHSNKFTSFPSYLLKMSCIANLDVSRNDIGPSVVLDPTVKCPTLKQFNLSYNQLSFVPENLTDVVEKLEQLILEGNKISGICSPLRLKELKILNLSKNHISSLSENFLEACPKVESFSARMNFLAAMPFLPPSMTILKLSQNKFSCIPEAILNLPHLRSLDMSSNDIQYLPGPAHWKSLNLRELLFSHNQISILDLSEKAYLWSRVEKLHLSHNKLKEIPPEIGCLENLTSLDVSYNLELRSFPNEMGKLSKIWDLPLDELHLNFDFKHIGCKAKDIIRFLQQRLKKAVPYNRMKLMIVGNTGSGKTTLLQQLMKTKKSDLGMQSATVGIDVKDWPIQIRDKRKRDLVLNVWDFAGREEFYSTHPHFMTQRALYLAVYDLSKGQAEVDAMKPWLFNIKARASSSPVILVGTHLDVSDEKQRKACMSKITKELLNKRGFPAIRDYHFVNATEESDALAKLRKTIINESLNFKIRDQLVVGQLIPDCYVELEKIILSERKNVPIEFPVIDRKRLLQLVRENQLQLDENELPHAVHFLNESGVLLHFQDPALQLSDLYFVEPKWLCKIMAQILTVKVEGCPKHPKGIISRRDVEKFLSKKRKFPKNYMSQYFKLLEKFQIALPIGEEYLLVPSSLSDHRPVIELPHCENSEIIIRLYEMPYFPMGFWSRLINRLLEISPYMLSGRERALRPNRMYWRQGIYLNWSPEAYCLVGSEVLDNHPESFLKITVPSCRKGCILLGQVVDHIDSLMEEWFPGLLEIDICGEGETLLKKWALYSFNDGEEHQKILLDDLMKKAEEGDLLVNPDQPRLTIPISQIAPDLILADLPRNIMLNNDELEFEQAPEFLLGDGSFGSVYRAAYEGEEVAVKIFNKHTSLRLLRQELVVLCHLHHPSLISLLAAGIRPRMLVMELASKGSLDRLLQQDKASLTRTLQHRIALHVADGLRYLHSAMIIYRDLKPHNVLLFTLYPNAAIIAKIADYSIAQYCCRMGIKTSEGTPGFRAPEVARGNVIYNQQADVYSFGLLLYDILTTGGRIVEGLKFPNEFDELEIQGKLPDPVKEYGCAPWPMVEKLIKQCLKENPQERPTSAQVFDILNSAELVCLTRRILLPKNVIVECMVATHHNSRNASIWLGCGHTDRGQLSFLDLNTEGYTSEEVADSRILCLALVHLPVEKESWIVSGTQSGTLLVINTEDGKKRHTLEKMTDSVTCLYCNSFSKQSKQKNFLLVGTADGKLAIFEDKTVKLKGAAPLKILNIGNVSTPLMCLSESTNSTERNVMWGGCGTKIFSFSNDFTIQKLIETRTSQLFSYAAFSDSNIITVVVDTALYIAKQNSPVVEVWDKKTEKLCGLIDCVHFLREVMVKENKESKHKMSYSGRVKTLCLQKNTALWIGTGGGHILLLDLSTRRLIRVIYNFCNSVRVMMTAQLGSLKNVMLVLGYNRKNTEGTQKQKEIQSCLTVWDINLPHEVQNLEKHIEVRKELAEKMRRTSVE

The experiment addresses LRRK2 (Homo sapiens, UniProt Q5S007). Put plainly: LRRK2 protein kinase assay ([γ-33P] ATP, peptide substrate), KI values of Table 1. The experiment is classed as biochemical. The settings on record: LRRK2 affinity values. The source says:
All LRRK2 protein kinases were of human origin and were sourced from Invitrogen Corporation (Carlsbad, Calif. 92008 USA) unless otherwise indicated. The active mutant used was recombinant human, catalytic domain (amino acids 970-2527) containing a G2019S mutation, GST-tagged, expressed in insect cells (Invitrogen Cat#PV4881). The wild type used was recombinant human, catalytic domain (amino acids 970-2527) GST-tagged, expressed in insect cells (Invitrogen Cat#PV4873). The kinase dead mutant used was recombinant human, catalytic domain (amino acids 970-2527) containing a D1994A mutation, GST-tagged, expressed in insect cells (Invitrogen Cat#PM4041AE). No special measures were taken to activate any of the kinases.
All assays were carried out at room temperature (˜21° C.) and were linear with respect to time and enzyme concentration under the conditions used. Assays were performed for 180 min in a 96 well format. LRRK2 was present at a concentration of approximately 5 nM. The enzyme was diluted and assayed in 50 mM Tris-HCl pH7.5, 0.1 mM EGTA, 1 mM DTT and 10 mM MgCl2. The concentration of magnesium chloride in the assay was 10 mM. The [γ-33P] ATP (0.4 μCi/well) was used at 134 uM for G2019S mutant and at 57 μM for the wild type kinase in order to be at Km. The peptide substrate in the assay was […] at 100 μM.
The assays were initiated with Mg/ATP and stopped by the addition of 25 μl/well 50% orthophosphoric acid. Reactions were harvested onto Whatman P81 Unifilter Plates (Fisher Scientific. Loughborough, LE115RG, UK. Cat# FDU-105-020U) using a Tomtec harvester. (Tomtec Hamden, Conn. 06514. USA) Plates were counted using a Perkin Elmer Top Count NX7. (Perkin Elmer, Shelton Conn. 06484-4794 USA)
IC50 values of inhibitors were determined after carrying out assays at 10 different concentrations of each compound in duplicate.
As for `FC(F)(F)c1cc(-c2n[nH]c3ccnc(NCC4CC4)c23)ncn1` [Compound 65, N-(cyclopropylmethyl)-3-(6-(trifluoromethyl)pyrimidin-4-yl)-1H-pyrazolo[4,3-c]pyridin-4-amine], the affinity corresponds to a Ki of 20.2 nM. In turn, `CC(C)Nc1nccc2[nH]nc(-c3cc(C4CCOCC4)ncn3)c12` [Compound 47, N-isopropyl-3-(6-(tetrahydro-2H-pyran-4-yl)pyrimidin-4-yl)-1H-pyrazolo[4,3-c]pyridin-4-amine] showed an inhibitory constant (Ki) of 3.8 nM. As to `Cc1cc2[nH]nc(-c3cc(C(F)(F)F)ncn3)c2c(NC2CCOCC2)n1` [Compound 57, 6-methyl-N-(tetrahydro-2H-pyran-4-yl)-3-(6-(trifluoromethyl)pyrimidin-4-yl)-1H-pyrazolo[4,3-c]pyridin-4-amine], the Ki stood at 66.3 nM. For `Cc1c(-c2ccnc(-c3n[nH]c4ccnc(NC(C)C)c34)c2)cnn1C` [Compound 44, 3-(4-(1,5-dimethyl-1H-pyrazol-4-yl)pyridin-2-yl)-N-isopropyl-1H-pyrazolo[4,3-c]pyridin-4-amine], affinity was put at a Ki of 1.1 nM.

The compound `CCNc1nccc2[nH]nc(-c3ccccn3)c12` [Compound 16, N-ethyl-3-(pyridin-2-yl)-1H-pyrazolo[4,3-c]pyridin-4-amine] displayed an inhibition constant (Ki) of 66.4 nM.

In turn, `N#Cc1ccnc(-c2n[nH]c3ccnc(NC4CCOCC4)c23)c1` [Compound 26, 2-(4-((tetrahydro-2H-pyran-4-yl)amino)-1H-pyrazolo[4,3-c]pyridin-3-yl)isonicotinonitrile] registered a Ki of 3.8 nM. For `CCNc1nccc2[nH]nc(-c3cc(C(F)(F)F)ccn3)c12` [Compound 21, N-ethyl-3-(4-(trifluoromethyl)pyridin-2-yl)-1H-pyrazolo[4,3-c]pyridin-4-amine], the inhibition constant Ki stood at 9.4 nM. With `CC(C)Nc1nccc2[nH]nc(-c3cc(C4CCOCC4)ccn3)c12` [Compound 39, N-isopropyl-3-(4-(tetrahydro-2H-pyran-4-yl)pyridin-2-yl)-1H-pyrazolo[4,3-c]pyridin-4-amine], the affinity, expressed as Ki, was 3.9 nM. `FC(F)(F)c1ccnc(-c2n[nH]c3ccnc(NC4CCOCC4)c23)c1` [Compound 23, N-(tetrahydro-2H-pyran-4-yl)-3-(4-(trifluoromethyl)pyridin-2-yl)-1H-pyrazolo[4,3-c]pyridin-4-amine] returned a Ki of 0.4 nM. As to `CC(C)Nc1nccc2[nH]nc(-c3cc(C(F)(F)F)ncn3)c12` [Compound 24, N-isopropyl-3-(6-(trifluoromethyl)pyrimidin-4-yl)-1H-pyrazolo[4,3-c]pyridin-4-amine], the affinity corresponds to a Ki of 9.7 nM. As for `Clc1ccnc(-c2n[nH]c3ccnc(NC4CCOCC4)c23)c1` [Compound 29, 3-(4-chloropyridin-2-yl)-N-(tetrahydro-2H-pyran-4-yl)-1H-pyrazolo[4,3-c]pyridin-4-amine], the affinity corresponds to a Ki of 0.7 nM. Regarding `Cc1cc(C(F)(F)F)cc(-c2n[nH]c3ccnc(NC4CCOCC4)c23)n1` [Compound 70, 3-(6-methyl-4-(trifluoromethyl)pyridin-2-yl)-N-(tetrahydro-2H-pyran-4-yl)-1H-pyrazolo[4,3-c]pyridin-4-amine], the affinity, expressed as Ki, was 0.7 nM. Turning to `CC(C)Nc1nccc2[nH]nc(-c3cc(S(=O)(=O)C(C)C)ccn3)c12` [Compound 74, N-isopropyl-3-(4-(isopropylsulfonyl)pyridin-2-yl)-1H-pyrazolo[4,3-c]pyridin-4-amine], the Ki came out at 25.8 nM. In turn, `FC1(F)CCC(Nc2nccc3[nH]nc(-c4ccccn4)c23)CC1` [Compound 34, N-(4,4-difluorocyclohexyl)-3-(pyridin-2-yl)-1H-pyrazolo[4,3-c]pyridin-4-amine] yielded a Ki of 6.4 nM.

These data come from patent US20140288043A1, “PYRAZOLOPYRIDINE COMPOUNDS” (Genentech, Inc., priority 2013, published 2014).
